One data set relates to Oryctolagus sp. Particulars: acute, dermal.
Data set [1] deals with Rattus norvegicus. Particulars: acute, oral.
The next data set has as its system Mus musculus. Particulars: oral.
The subject of data set [2] is Rattus norvegicus.
For data set [3], the system named is Rattus norvegicus. Particulars: oral.
In data set [4] the test system is Rattus norvegicus. Particulars: Hershberger, oral, gavage.
The mark [5] stands for this setting: reproduction developmental, oral, drinking water, F, reproductive effects.
The mark [6] stands for this setting: subchronic, duration: 13 weeks, oral, diet, M/F, neurological dysfunction.
[7] abbreviates: chronic, duration: 2 years, oral, diet, M/F, reduced body weight.
The mark [8] stands for this setting: chronic, duration: 2 years, oral, diet, M/F, increased levels of serum proteins and increased liver weight.
Setting [9] is: developmental, duration: 1 days, gavage, M/F, NMRI, Developmental: Altered spontaneous behavior and habituation in adults exposed as neonates.
The mark [10] stands for this setting: developmental, duration: 42 days, gavage, M/F, CD1, Developmental: Decrease in number of pups per litter with no change in pup to implantation site ratio.
The mark [11] stands for this setting: developmental, duration: 16 days, gavage, F, Wistar, Developmental: 20% decrease in serum T4 levels in pups on PND 16/17 + Endocrine: 20-30% decreases in serum T4 levels in dams.
Where [12] appears, read: reproduction developmental, duration: 56 days, gavage, M, Sprague-Dawley, Endocrine: Hypertrophy and hyperplasia of thyroid follicular cells in males.
[13] abbreviates: reproduction developmental, duration: 56 days, gavage, M, Sprague-Dawley, Renal: 31% increase in BUN in males.
Setting [14] is: reproduction developmental, oral, M/F, reduced fertility index and reduced body weight of dams.
Setting [15] is: duration: 10 days, Wistar, active + Negative + Antiandrogenic + anti-androgenic.
Where [16] appears, read: developmental, duration: 14 days, gavage, M, NMRI, developmental.
The mark [17] stands for this setting: duration: 5 days, Sprague-Dawley, active + Antiandrogenic + anti-androgenic + PPS delayed by 5 days / single dose tested (liver wt?).

Molecules are shown by their SMILES. “And” between values parts separate entries of the source, which are not always exact repeats. Equal entries are not always repeated.

A word on the LD50: it is the dose expected to kill half of the subjects tested. A low value points to greater toxicity. What is called LOAEL is the lowest dose or exposure tested at which an adverse effect was seen. A word on the NOAEL: it is the highest tested level that showed no adverse finding.

With `CC(C)COP(=S)([S-])OCC(C)C.CC(C)COP(=S)([S-])OCC(C)C.[Zn+2]`, the median lethal dose (LD50) with Oryctolagus sp. (New Zealand) is more than 20000 mg/kg; with Rattus norvegicus [1] (gavage, Wistar) it was 3600 mg/kg.

`CCC(C)OP(=S)([S-])OC(C)CC(C)C.CCC(C)OP(=S)([S-])OC(C)CC(C)C.[Zn+2]` (configuration not stated): the LD50 in the data set on Oryctolagus sp. (New Zealand) is more than 5000 mg/kg; in the data set on Rattus norvegicus [1] (gavage, Sprague-Dawley), ≥ 2900 mg/kg and ≤ 3400 mg/kg.

Turning to `Cc1ccc([N+](=O)[O-])cc1C` [1,2-Dimethyl-4-nitrobenzene], the LD50 in the data set on Oryctolagus sp. (occlusive, New Zealand) was more than 5700 mg/kg; in the data set on Rattus norvegicus [1] (Wistar) it was 2640 mg/kg.

`CNNC` [1,2-Dimethylhydrazine] registered an LOAEL with Mus musculus (chronic, duration: 5 months, diet, M, hepatic) of 0.75 mg/kg-day.

As for `Oc1ccccc1Cl` [2-Chlorophenol], the LOAEL in the data set on Rattus norvegicus [2] (setting [5]) amounted to 50 mg/kg-day. Besides, the no observed adverse effect level (NOAEL) with Rattus norvegicus [2] (setting [5]) is 5 mg/kg-day; in the data set on Rattus norvegicus [3] (reproduction developmental, duration: 364 days, drinking water, M/F, Sprague-Dawley, reproductive), 7.6 mg/kg-day.

As for `CCOP(=O)(OCC)OC(=CCl)c1ccc(Cl)cc1Cl` [Chlorfenvinphos], the LOAEL with Mus musculus (subchronic, duration: 3 months, M/F, C57BL/6, immunological) turned out to be 1.5 mg/kg-day; in the data set on Rattus norvegicus [3] (chronic, duration: 104 weeks, diet, M/F, Wistar, neurological), 0.7 mg/kg-day; in the data set with Rattus norvegicus [3] (short-term, duration: 10 days, diet, F, Wistar, neurological), 2.4 mg/kg-day.

In the data set on Rattus norvegicus [2] (setting [6]), `CC(C)C(C(=O)OC(C#N)c1cccc(Oc2ccccc2)c1)c1ccc(Cl)cc1` (configuration not stated) [Fenvalerate] had an LEL of 7.5 mg/kg-day and an NOEL of 2.5 mg/kg-day.

With `CN(C)C(=O)Nc1cccc(C(F)(F)F)c1` [Fluometuron], the NOAEL in the data set on Rattus norvegicus [2] (chronic, duration: 103 weeks, oral, diet, M/F, no effects) is 12.5 mg/kg-day.

With `CN(C)c1nc(=O)n(C2CCCCC2)c(=O)n1C` [Hexazinone], in the data set on Rattus norvegicus [2] (setting [7]), the LEL came out at 50 mg/kg-day and the NOEL stood at 10 mg/kg-day.

On to `Cl` [Hydrochloric acid], for which, in the data set on Rattus norvegicus [2] (chronic, inhalation, M, hyperplasia of nasal mucosa larynx and trachea), the LOAEL came out at 15 mg/m3.

In the data set on Rattus norvegicus [2] (setting [8]), `CC(C)Oc1cc(-n2nc(C(C)(C)C)oc2=O)c(Cl)cc1Cl` [Oxadiazon] showed an LEL of 5 mg/kg-day and an NOEL of 0.5 mg/kg-day.

`O=S(=O)(O)C(F)(F)C(F)(F)C(F)(F)C(F)(F)C(F)(F)C(F)(F)F` [Perfluorohexanesulfonic acid]: the LOAEL worked out at 9.2 mg/kg-day in the data set with Mus musculus (setting [9]); 1 mg/kg-day in the data set with Mus musculus (setting [10]); 3 mg/kg-day in the data set with Mus musculus (reproduction developmental, duration: 42 days, gavage, M/F, CD1, Hepatic: Single cell necrosis and microvascular fatty changes at 3 mg/kg/day / centrilobular hepatocellular hypertrophy at ?0.3 mg/kg/day …); 5 mg/kg-day with Rattus norvegicus [3] (setting [11]); 25 mg/kg-day in the data set with Rattus norvegicus [3] (developmental, duration: 16 days, gavage, F, Wistar, Developmental: 40% decrease in serum T4 levels in pups on PND 16 + Endocrine: 60% decreases in serum T4 levels in dams); 3 mg/kg-day in the data set on Rattus norvegicus [3] (setting [12]). Further, the LOAEL in the data set with Rattus norvegicus [3] (reproduction developmental, duration: 56 days, gavage, M, Sprague-Dawley, Hematological: 6% increase in prothrombin time in males at ?0.3 mg/kg/day / decreases in hemoglobin (4%), hematocrit (3%), and RBC levels (…) is 0.3 mg/kg-day; in the data set with Rattus norvegicus [3] (setting [13]) it was 10 mg/kg-day. Also, the NOAEL was 6.1 mg/kg-day with Mus musculus (setting [9]); 3 mg/kg-day in the data set with Mus musculus (developmental, duration: 42 days, gavage, M/F, CD1); 0.3 mg/kg-day in the data set with Mus musculus (setting [10]); 1 mg/kg-day in the data set on Mus musculus (developmental, duration: 42 days, gavage, M/F, CD1, Hepatic: Single cell necrosis and microvascular fatty changes at 3 mg/kg/day / centrilobular hepatocellular hypertrophy at ?0.3 mg/kg/day …); 10 mg/kg-day in the data set on Mus musculus (short-term, duration: 7 days, gavage, M, Hepatic: Hepatocellular hypertrophy, steatosis, and increased hepatic triglyceride levels); 6 mg/kg-day with Mus musculus (subchronic, duration: 6 weeks, diet, M, Hepatic: Decreased plasma triglyceride, cholesterol, non-HDL cholesterol, and HDL cholesterol levels / increased hepatic triglyceride …). In addition, the NOAEL with Rattus norvegicus [3] (setting [11]) was 0.05 mg/kg-day; in the data set with Rattus norvegicus [3] (reproduction developmental, duration: 56 days, gavage, F, Sprague-Dawley, Hematological: 6% increase in prothrombin time in males at ?0.3 mg/kg/day / decreases in hemoglobin (4%), hematocrit (3%), and RBC levels (…) it was 10 mg/kg-day; in the data set on Rattus norvegicus [3] (reproduction developmental, duration: 56 days, gavage, M/F, Sprague-Dawley, Hepatic: Increased liver weight / centrilobular hepatocellular hypertrophy in males at ?3 mg/kg/day + Immunotoxicological: No histological …), 10 mg/kg-day; in the data set with Rattus norvegicus [3] (setting [12]), 1 mg/kg-day; in the data set on Rattus norvegicus [3] (setting [13]) it was 3 mg/kg-day; with Rattus norvegicus [3] (short-term, duration: 16 days, gavage, F, Wistar), 45 mg/kg-day and 25 mg/kg-day.

With `COc1nc(NC(C)C)nc(NC(C)C)n1` [Prometon], the NOAEL with Rattus norvegicus [2] (subchronic, oral, diet, M/F, no effects) was 15 mg/kg-day.

In turn, `O=c1nc([O-])n(Cl)c(=O)n1Cl.[Na+]` [Sodium dichloroisocyanurate] showed an LD50 in the data set with Oryctolagus sp. of more than 2000 mg/kg.

For `Clc1cc(Cl)cc(C2(CC(Cl)(Cl)Cl)CO2)c1` (configuration not stated) [Tridiphane], in the data set on Rattus norvegicus [2] (setting [14]), the LEL was determined as 1.67 mg/kg-day and the NOEL was 0.33 mg/kg-day.

On to `Clc1ccc(C(c2ccc(Cl)cc2)C(Cl)Cl)cc1` [p,p'-DDD], for which, in the data set on Rattus norvegicus [4] (setting [15]), the LOEL came to 200 mg/kg-day and the NOEL was 40 mg/kg-day. The LOAEL with Mus musculus (setting [16]) came out at 0.5 mg/kg-day.

For `ClC(Cl)=C(c1ccc(Cl)cc1)c1ccc(Cl)cc1` [p,p'-DDE], the LOEL in the data set with Rattus norvegicus [4] (setting [17]) was 100 mg/kg-day; in the data set on Rattus norvegicus [4] (duration: 7 days, Fischer 344, active + Antiandrogenic + anti-androgenic + PPS delayed by 5 days / single dose tested (liver wt?)), 100 mg/kg-day and 200 mg/kg-day; with Rattus norvegicus [4] (duration: 7 days, Long-Evans, active + Antiandrogenic + anti-androgenic + PPS delayed by 5 days / single dose tested (liver wt?)), 100 mg/kg-day; in the data set on Rattus norvegicus [4] (duration: 7 days, Sprague-Dawley, active + Antiandrogenic + anti-androgenic + PPS delayed by 5 days / single dose tested (liver wt?)), 100 mg/kg-day and 200 mg/kg-day; with Rattus norvegicus [4] (duration: 10 days, Sprague-Dawley, active + Negative + Antiandrogenic + anti-androgenic + PPS delayed by 5 days / single dose tested (liver wt?)), 100 mg/kg-day. The NOEL in the data set on Rattus norvegicus [4] (setting [17]) is 10 mg/kg-day; in the data set with Rattus norvegicus [4] (duration: 10 days, Wistar, active + Antiandrogenic + anti-androgenic + PPS delayed by 5 days / single dose tested (liver wt?)) it was 16 mg/kg-day and 30 mg/kg-day; in the data set on Rattus norvegicus [4] (duration: 10 days, wistar, active + Antiandrogenic + anti-androgenic + PPS delayed by 5 days / single dose tested (liver wt?)), 10 mg/kg-day and 16 mg/kg-day and 30 mg/kg-day. In the data set on Mus musculus (setting [16]), this molecule showed an LOAEL of 0.5 mg/kg-day.

The record behind these values is EPA's ToxValDB 9.5.
